This is an account of results in PubChem BioAssay AID248 (DTP/NCI, 2004).

The assay has as its system L1210 leukemia ip in BDF1 mice, survival T/C. Briefly: NCI In Vivo Anticancer Drug Screen. Data for tumor model L1210 Leukemia (intraperitoneal) in B6D2F1 (BDF1) mice. The following applies: endpoint: mean survival time, higher = longer survival. The method in brief: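 Tumor cells were implanted, animals were treated, and survival was followed. The result divides the treated measurement by the vehicle-control measurement.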

[1] abbreviates: dose: 100.0 mg/kg/injection, schedule: Q01DX001 (ip), vehicle: saline.
[2] abbreviates: dose: 100.0 mg/kg/injection, schedule: Q01DX009 (ip), vehicle: saline.
Where [3] appears, read: dose: 200.0 mg/kg/injection, schedule: Q01DX001 (ip), vehicle: saline.
The mark [4] stands for this setting: dose: 200.0 mg/kg/injection, schedule: Q01DX009 (ip), vehicle: saline.
Setting [5] is: dose: 400.0 mg/kg/injection, schedule: Q01DX001 (ip), vehicle: saline.
[6] abbreviates: dose: 100.0 mg/kg/injection, schedule: Q01DX001 (ip), vehicle: carboxymethylcellulose (CMC).
Where [7] appears, read: dose: 200.0 mg/kg/injection, schedule: Q01DX001 (ip), vehicle: carboxymethylcellulose (CMC).
[8] abbreviates: dose: 400.0 mg/kg/injection, schedule: Q01DX001 (ip), vehicle: carboxymethylcellulose (CMC).
The mark [9] stands for this setting: dose: 100.0 mg/kg/injection, schedule: Q01DX001 (ip), vehicle: Klucel (hydroxypropylcellulose) (HPC).
Where [10] appears, read: dose: 200.0 mg/kg/injection, schedule: Q01DX001 (ip), vehicle: Klucel (hydroxypropylcellulose) (HPC).
[11] abbreviates: dose: 100.0 mg/kg/injection, schedule: Q01DX009 (ip), vehicle: Klucel (hydroxypropylcellulose) (HPC).
Where [12] appears, read: dose: 100.0 mg/kg/injection, schedule: Q04DX003 (ip), vehicle: Klucel (hydroxypropylcellulose) (HPC).
The mark [13] stands for this setting: dose: 200.0 mg/kg/injection, schedule: Q01DX009 (ip), vehicle: Klucel (hydroxypropylcellulose) (HPC).
The mark [14] stands for this setting: dose: 200.0 mg/kg/injection, schedule: Q04DX003 (ip), vehicle: Klucel (hydroxypropylcellulose) (HPC).
[15] abbreviates: dose: 400.0 mg/kg/injection, schedule: Q01DX009 (ip), vehicle: Klucel (hydroxypropylcellulose) (HPC).
The mark [16] stands for this setting: dose: 400.0 mg/kg/injection, schedule: Q04DX003 (ip), vehicle: Klucel (hydroxypropylcellulose) (HPC).
The mark [17] stands for this setting: dose: 100.0 mg/kg/injection, schedule: Q04DX002 (ip), vehicle: saline with Tween-80.
The mark [18] stands for this setting: dose: 200.0 mg/kg/injection, schedule: Q04DX002 (ip), vehicle: saline with Tween-80.
Where [19] appears, read: dose: 400.0 mg/kg/injection, schedule: Q04DX002 (ip), vehicle: saline with Tween-80.

The structures appear in SMILES notation. Where “and” joins values, the source holds several entries; their conditions need not be identical. Identical values can stand only once. Toxic doses and inconclusive results are not listed.

In the case of `CC(=O)OC1/C(=C/c2ccco2)CCC2CCCCC21C` (stereo unspecified), the T/C was 96 % of control (dose: 50.0 mg/kg/injection, schedule: Q01DX009 (ip), vehicle: saline); 91 % of control under setting [1]; 103 % of control under setting [2]; 88 % of control under setting [3]; 108 % of control under setting [4]; 93 % of control under setting [5].

In the case of `CCOC(=O)NC12c3ccccc3C(c3ccccc31)C(C(=O)O)C2C(=O)O` (stereo unspecified), the T/C is 90 % of control (dose: 100.0 mg/kg/injection, schedule: Q04DX003 (ip), vehicle: saline sonified); 119 % of control (dose: 200.0 mg/kg/injection, schedule: Q04DX003 (ip), vehicle: saline sonified); 90 % of control (dose: 400.0 mg/kg/injection, schedule: Q04DX003 (ip), vehicle: saline sonified).

As to `C[C@]12CC[C@@H]3c4ccc(O)cc4CC[C@H]3[C@@H]1CC[C@@H]2OC(=O)CCC1CCCC1`, the T/C is, setting by setting: (dose: 60.0 mg/kg/injection, schedule: Q04DX003 (sc), vehicle: steriod suspending solution) 104 % of control; (dose: 100.0 mg/kg/injection, schedule: Q01DX001 (sc), vehicle: steriod suspending solution) 107 % of control; (dose: 120.0 mg/kg/injection, schedule: Q04DX003 (sc), vehicle: steriod suspending solution) 104 % of control; (dose: 200.0 mg/kg/injection, schedule: Q01DX001 (sc), vehicle: steriod suspending solution) 113 % of control; (dose: 240.0 mg/kg/injection, schedule: Q04DX003 (sc), vehicle: steriod suspending solution) 100 % of control; (dose: 400.0 mg/kg/injection, schedule: Q01DX001 (sc), vehicle: steriod suspending solution) 107 % of control.

For the compound `CC(C)(C)c1cccc(C(=O)O)c1O`, the T/C is 97 % of control under setting [6], 97 % of control under setting [7] and 90 % of control under setting [8].

Regarding `O/N=C/c1c(O)cccc1Cl`, the T/C was 102 % of control (dose: 75.0 mg/kg/injection, schedule: Q01DX001 (ip), vehicle: acetone) and 91 % of control (dose: 150.0 mg/kg/injection, schedule: Q01DX001 (ip), vehicle: acetone).

Regarding `COc1ccc2c3c(ccc2c1)C(=O)C(C)(C#N)CC3` (stereo unspecified), the T/C by setting is: under setting [2], 88 % of control; (dose: 100.0 mg/kg/injection, schedule: Q04DX003 (ip), vehicle: saline) 89 % of control; under setting [4], 91 % of control; (dose: 200.0 mg/kg/injection, schedule: Q04DX003 (ip), vehicle: saline) 89 % of control; (dose: 400.0 mg/kg/injection, schedule: Q01DX009 (ip), vehicle: saline) 95 % of control; (dose: 400.0 mg/kg/injection, schedule: Q04DX003 (ip), vehicle: saline) 94 % of control.

With `CCOC(=S)c1ccc(S(=O)(=O)Nc2ccc(OCC)cc2)cc1`, the T/C was 95 % of control under setting [9]; 98 % of control under setting [10]; 95 % of control (dose: 400.0 mg/kg/injection, schedule: Q01DX001 (ip), vehicle: Klucel (hydroxypropylcellulose) (HPC)).

On to `CCCCOCCOC(=O)CC(/C=C(/C)CC(C)(C)C)C(=O)OCCOCCCC` (stereo unspecified), for which the T/C (dose: 222.0 mg/kg/injection, schedule: Q01DX Z (ip), vehicle: methylcellulose (MC)) is 101 % of control; the T/C (dose: 333.0 mg/kg/injection, schedule: Q01DX Z (ip), vehicle: methylcellulose (MC)) is 108 % of control; the T/C (dose: 500.0 mg/kg/injection, schedule: Q01DX Z (ip), vehicle: methylcellulose (MC)) was 96 % of control.

On to `COc1ccc(C(C(N)=O)N2CCOCC2)cc1` (stereo unspecified), for which the T/C was 98 % of control under setting [11]; 95 % of control under setting [12]; 100 % of control under setting [13]; 98 % of control under setting [14]; 97 % of control under setting [15]; 104 % of control under setting [16].

As for `O=c1ccc2ccccc2o1`, the T/C is 114 % of control (dose: 45.0 mg/kg/injection, schedule: Q01DX Z (ip), vehicle: carboxymethylcellulose (CMC)); 94 % of control (dose: 65.0 mg/kg/injection, schedule: Q01DX Z (ip), vehicle: carboxymethylcellulose (CMC)); 102 % of control (dose: 95.0 mg/kg/injection, schedule: Q01DX Z (ip), vehicle: carboxymethylcellulose (CMC)); 100 % of control (dose: 100.0 mg/kg/injection, schedule: Q01DX001 (ip), vehicle: other); 102 % of control and 105 % of control (dose: 110.0 mg/kg/injection, schedule: Q01DX Z (ip), vehicle: carboxymethylcellulose (CMC)); 97 % of control (dose: 165.0 mg/kg/injection, schedule: Q01DX Z (ip), vehicle: carboxymethylcellulose (CMC)). The T/C (dose: 200.0 mg/kg/injection, schedule: Q01DX001 (ip), vehicle: other) was 105 % of control.

With `CCN(CC)C(=S)c1ccc(C(=S)N(CC)CC)cc1`, the T/C under setting [12] is 91 % of control, the T/C under setting [14] was 93 % of control and the T/C under setting [16] is 93 % of control.

`CSc1nc(N)nc(N)n1`: the T/C was 97 % of control (dose: 25.0 mg/kg/injection, schedule: Q01DX009 (ip), vehicle: Klucel (hydroxypropylcellulose) (HPC)); 100 % of control (dose: 50.0 mg/kg/injection, schedule: Q01DX009 (ip), vehicle: Klucel (hydroxypropylcellulose) (HPC)); 93 % of control and 90 % of control under setting [11]; 98 % of control under setting [13].

`CCOC(=O)c1oc2ccc(OC)c(C(C)=O)c2c1C`: the T/C is 103 % of control under setting [17], 107 % of control under setting [18] and 94 % of control under setting [19].

As for `COc1cc(C=Nc2cc(Br)c(OC)c(Br)c2)ccc1N(CCCl)CCCl`, the T/C by setting is: (dose: 19.0 mg/kg/injection, schedule: Q01DX001 (ip), vehicle: carboxymethylcellulose (CMC)) 118 % of control; (dose: 29.0 mg/kg/injection, schedule: Q01DX001 (ip), vehicle: carboxymethylcellulose (CMC)) 118 % of control; (dose: 150.0 mg/kg/injection, schedule: Q01DX001 (ip), vehicle: carboxymethylcellulose (CMC)) 150 % of control; under setting [7], 104 % of control.

As for `COc1ccc(N=Nc2nccs2)c(O)c1`, the T/C by setting is: (dose: 50.0 mg/kg/injection, schedule: Q01DX009 (ip), vehicle: saline with Tween-80) 102 % of control; (dose: 100.0 mg/kg/injection, schedule: Q01DX009 (ip), vehicle: saline with Tween-80) 98 % of control; (dose: 200.0 mg/kg/injection, schedule: Q01DX009 (ip), vehicle: saline with Tween-80) 109 % of control.

For `Cc1ccc(-c2cn(CCCOc3ccccc3)c(=O)nc2N)cc1`, the T/C was 89 % of control (dose: 50.0 mg/kg/injection, schedule: Q01DX001 (ip), vehicle: Klucel (hydroxypropylcellulose) (HPC)); 99 % of control under setting [9]; 87 % of control under setting [10].

For `COc1ccc(NC(=O)Oc2ccc(Cl)cc2Cl)c(OC)c1`, the T/C is 114 % of control under setting [11] and 101 % of control under setting [13].

With `CCOC(=O)NS(=O)(=O)c1ccccc1`, the T/C is 100 % of control under setting [11], 101 % of control under setting [13] and 87 % of control under setting [15].

With `CCCCCCCCOc1ccc(C=Nc2ccc(CC)cc2)cc1`, the T/C is 97 % of control under setting [11], 86 % of control under setting [13] and 91 % of control under setting [15].

As for `Cc1ccc(-c2c([N+](=O)[O-])ccc(Cl)c2[N+](=O)[O-])cc1`, the T/C is 102 % of control (dose: 50.0 mg/kg/injection, schedule: Q01DX001 (ip), vehicle: carboxymethylcellulose (CMC)); 105 % of control under setting [6]; 102 % of control under setting [7]; 100 % of control under setting [8].

As to `O=C(O)c1cc(Br)cc(Br)c1O`, the T/C reads like this: under setting [1], 123 % of control; under setting [17], 91 % of control; under setting [3], 105 % of control; under setting [18], 100 % of control; under setting [5], 109 % of control; under setting [19], 88 % of control.

For the compound `CC1(CCC#N)CCC(N)=CC1=O` (stereo unspecified), the T/C under setting [6] is 96 % of control, the T/C under setting [7] is 98 % of control and the T/C under setting [8] is 96 % of control.
